# Results published in ChEMBL document CHEMBL4043111, “Asymmetric synthesis and evaluation of epoxy-α-acyloxycarboxamides as selective inhibitors of cathepsin L” (Bioorg Med Chem, 2017).
# Several values for one entry are separate records, joined by “and”; a condition that tells them apart may be missing. Equal values may be shown once. Activity calls are given as the source filed them. No cut-off for these calls is given here.
# Legend:
# [1] = biological target: T1, Procathepsin L (Homo sapiens, UniProt P07711); experiment: Inhibition of human liver cathepsin L at 25 uM peincubated for 5 mins followed by Z-FR-MCA addition by spectrofluorimetric method relative to control
# Target sequence in this assay (P07711 114-333 limits assumed): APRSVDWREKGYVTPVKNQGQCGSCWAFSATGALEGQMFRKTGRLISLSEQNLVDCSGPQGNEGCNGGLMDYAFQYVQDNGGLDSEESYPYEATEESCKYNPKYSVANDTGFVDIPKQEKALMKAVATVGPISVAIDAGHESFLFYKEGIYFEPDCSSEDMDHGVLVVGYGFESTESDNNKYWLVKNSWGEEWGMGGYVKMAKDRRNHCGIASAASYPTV
# [2] = biological target: T2, Cathepsin L2 (Homo sapiens) (UniProt O60911); experiment: Inhibition of cathepsin V (unknown origin) at 25 uM peincubated for 5 mins followed by Z-FR-MCA addition by spectrofluorimetric method relative to control
# T2 sequence (whole entry): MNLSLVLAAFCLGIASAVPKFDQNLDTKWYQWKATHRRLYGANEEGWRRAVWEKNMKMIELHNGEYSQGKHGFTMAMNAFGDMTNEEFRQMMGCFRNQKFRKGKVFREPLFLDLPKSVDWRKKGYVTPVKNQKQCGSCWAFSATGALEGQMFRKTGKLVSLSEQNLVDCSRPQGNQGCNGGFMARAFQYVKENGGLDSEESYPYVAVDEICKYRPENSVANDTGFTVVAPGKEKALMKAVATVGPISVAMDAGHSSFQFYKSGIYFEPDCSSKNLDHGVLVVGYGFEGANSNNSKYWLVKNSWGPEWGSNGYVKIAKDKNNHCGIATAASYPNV
# [3] = biological target: T3, Cathepsin K (Homo sapiens) (UniProt P43235); experiment: Inhibition of cathepsin K (unknown origin) at 25 uM peincubated for 5 mins followed by Z-FR-MCA addition by spectrofluorimetric method relative to control
# T3 sequence (whole entry): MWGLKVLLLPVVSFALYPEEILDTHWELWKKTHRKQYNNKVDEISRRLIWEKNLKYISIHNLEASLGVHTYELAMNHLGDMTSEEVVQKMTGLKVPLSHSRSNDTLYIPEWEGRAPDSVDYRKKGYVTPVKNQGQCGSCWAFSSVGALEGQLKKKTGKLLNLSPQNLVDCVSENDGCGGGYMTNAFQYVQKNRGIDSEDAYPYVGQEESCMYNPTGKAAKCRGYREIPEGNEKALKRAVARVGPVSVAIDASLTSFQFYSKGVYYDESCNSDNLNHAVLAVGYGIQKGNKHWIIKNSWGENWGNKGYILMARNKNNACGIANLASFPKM
# [4] = biological target: T1, Procathepsin L; experiment: Inhibition of human liver cathepsin L peincubated for 5 mins followed by Z-FR-MCA addition by spectrofluorimetric method
# Target sequence in this assay (P07711 whole entry): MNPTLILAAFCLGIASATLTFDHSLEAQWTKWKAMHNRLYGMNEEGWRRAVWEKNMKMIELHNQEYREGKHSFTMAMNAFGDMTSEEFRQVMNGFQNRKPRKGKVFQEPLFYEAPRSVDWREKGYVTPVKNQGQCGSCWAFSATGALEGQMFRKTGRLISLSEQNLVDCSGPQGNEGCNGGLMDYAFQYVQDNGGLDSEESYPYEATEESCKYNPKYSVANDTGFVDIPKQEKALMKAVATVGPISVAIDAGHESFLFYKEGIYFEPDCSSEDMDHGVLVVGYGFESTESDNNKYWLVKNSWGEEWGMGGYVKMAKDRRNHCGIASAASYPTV
# [5] = biological target: T1, Procathepsin L; experiment: Reversible inhibition of human liver cathepsin L peincubated for 30 mins followed by addition of 9 uM of substrate Z-FR-MCA measured after 10 mins by spectrofluorimetric method
# Target sequence in this assay (P07711 whole entry): as above
# [6] = biological target: T1, Procathepsin L; experiment: Reversible inhibition of human liver cathepsin L peincubated for 30 mins followed by addition of 4 uM of substrate Z-FR-MCA measured after 10 mins by spectrofluorimetric method
# Target sequence in this assay (P07711 whole entry): as above
# [7] = biological target: T1, Procathepsin L; experiment: Uncompetitive inhibition of cathepsin L (unknown origin) peincubated for 30 mins followed by substrate Z-FR-MCA addition measured after 10 mins by spectrofluorimetric method
# Target sequence in this assay (P07711 whole entry): as above
# [8] = biological target: T1, Procathepsin L; experiment: Reversible inhibition of human liver cathepsin L peincubated for 30 mins followed by addition of 8 uM of substrate Z-FR-MCA measured after 10 mins by spectrofluorimetric method
# Target sequence in this assay (P07711 whole entry): as above
# [9] = biological target: T1, Procathepsin L; experiment: Reversible inhibition of human liver cathepsin L peincubated for 30 mins followed by addition of 4.5 uM of substrate Z-FR-MCA measured after 10 mins by spectrofluorimetric method
# Target sequence in this assay (P07711 whole entry): as above
# [10] = biological target: T1, Procathepsin L; experiment: Reversible inhibition of human liver cathepsin L peincubated for 30 mins followed by addition of 6 uM of substrate Z-FR-MCA measured after 10 mins by spectrofluorimetric method
# [11] = biological target: T1, Procathepsin L; experiment: Reversible inhibition of human liver cathepsin L peincubated for 30 mins followed by addition of 7 uM of substrate Z-FR-MCA measured after 10 mins by spectrofluorimetric method
# [12] = biological target: T1, Procathepsin L; experiment: Reversible inhibition of human liver cathepsin L peincubated for 30 mins followed by addition of 3.5 uM of substrate Z-FR-MCA measured after 10 mins by spectrofluorimetric method
# [13] = biological target: T1, Procathepsin L; experiment: Reversible inhibition of human liver cathepsin L peincubated for 30 mins followed by addition of 5 uM of substrate Z-FR-MCA measured after 10 mins by spectrofluorimetric method
# [14] = biological target: T1, Procathepsin L; experiment: Reversible inhibition of human liver cathepsin L peincubated for 30 mins followed by addition of 5.5 uM of substrate Z-FR-MCA measured after 10 mins by spectrofluorimetric method
# [15] = biological target: T4, Cathepsin K (Homo sapiens, UniProt P43235); experiment: Inhibition of cathepsin K (unknown origin) peincubated for 5 mins followed by Z-FR-MCA addition by spectrofluorimetric method
# T4 sequence (P43235 whole entry): T3 sequence (whole entry)
Compound,inhibition [1],inhibition [2] [%],inhibition [3] [%],other results
CCCCCCC[C@H]1O[C@@H]1C(OC(=O)CCCCCBr)C(=O)NC1CCCCC1 (mixture of isomers),69%,–,–,–
CC(C)(C)NC(=O)C(OC(=O)c1ccccc1)[C@H]1O[C@@H]1c1ccccc1[N+](=O)[O-] (mixture of isomers),10.5%,21.3,21.5,–
CCCCCCCC1OC1C(OC(=O)c1ccc(I)cc1)C(=O)NC1CCCCC1 (mixture of isomers; form 1),–,–,–,IC50 [4]: 1.13 µM
CCCCCCC[C@H]1O[C@@H]1C(OC(=O)c1ccccc1)C(=O)NCC(=O)OC (mixture of isomers),inactive,–,–,–
CCCCCCCC1OC1C(OC(=O)c1ccc(I)cc1)C(=O)NC1CCCCC1 (mixture of isomers; form 2),–,–,–,IC50 [4]: 2.02 µM
CCCCCCC[C@H]1O[C@@H]1C(OC(=O)CCCCCBr)C(=O)NC(C)(C)C (mixture of isomers),inactive,–,–,–
CCCC(=O)OC(C(=O)NCc1ccccc1)[C@H]1O[C@@H]1c1ccccc1[N+](=O)[O-] (mixture of isomers),2.9%,3.9,0,–
CCCCCCCC1OC1C(OC(=O)c1ccc(I)cc1)C(=O)NC1CCCCC1 (stereo not given),–,–,–,IC50 [4]: 2.2 µM and 4.28 µM
CCCCCCC[C@H]1O[C@@H]1C(OC(=O)[C@H]1CCCN1C(=O)OC(C)(C)C)C(=O)NC(C)(C)C (mixture of isomers),67.3%,0,38.7,–
CCCCCCC[C@H]1O[C@@H]1C(OC(=O)C1CCCCC1)C(=O)NC(C)(C)C (mixture of isomers),inactive,–,–,–
CCCCCCC[C@H]1O[C@@H]1C(OC(=O)C1CCCCC1)C(=O)NCCCC (mixture of isomers),70%,–,–,–
"CCCCCCC[C@H]1O[C@@H]1C(OC(=O)[C@@H]1CCCN1C(=O)OC(C)(C)C)C(=O)NC(C)(C)C (single isomer, unassigned)",52.6%,0,39.3,–
CCCCCCC[C@H]1O[C@@H]1C(OC(=O)CCCCCBr)C(=O)NCCCC (mixture of isomers),69%,–,–,–
CCCCCCC[C@H]1O[C@@H]1C(OC(=O)CC(C)C)C(=O)NCc1ccccc1 (mixture of isomers),43%,–,–,–
CCCCCCC[C@H]1O[C@@H]1C(OC(=O)c1ccccc1)C(=O)NC(C)(C)C (mixture of isomers),86.4%,43.5,69.1,IC50 [15]: 12.5 µM
CCCCCCCCNC(=O)C(OC(=O)CCCCCBr)[C@H]1O[C@@H]1c1ccccc1[N+](=O)[O-] (mixture of isomers),84%,–,–,IC50 [4]: 8.55 µM

# The next lines start with results.
inhibition [1],inhibition [2] [%],inhibition [3] [%],Compound,other results
65%,–,–,CCCCCCC[C@H]1O[C@@H]1C(OC(=O)c1ccc(I)cc1)C(=O)NC(C)(C)C (mixture of isomers),–
74%,–,–,CCCCCCC[C@H]1O[C@@H]1C(OC(=O)c1ccc(I)cc1)C(=O)NCCCC (mixture of isomers),–
inactive,–,–,CCCCCCC[C@H]1O[C@@H]1C(OC(=O)CC(C)C)C(=O)NCCCC (mixture of isomers),–
98.5%,30.8,78,CCCCCCC[C@H]1O[C@@H]1C(OC(=O)c1ccc(I)cc1)C(=O)NC1CCCCC1 (mixture of isomers),IC50 [5]: 6.09 µM; IC50 [6]: 11.5 µM; Ki [7]: 1.33 µM; IC50 [8]: 5.75 µM; IC50 [9]: 11.1 µM; IC50 [10]: 5.26 µM; IC50 [11]: 7.17 µM; IC50 [12]: 16.9 µM; IC50 [13]: 9.78 µM; IC50 [14]: 5.13 µM; IC50 [15]: 5.72 µM
